Reference: patent US20130137126A1, “USE OF A BETA-G[…] FOR THE DETECTION AND/OR IDENTIFICATION OF C. DIFFICILE” (BIOMERIEUX, priority 2010, published 2013)

Tests used:
Assay type in all cases: cell-based
Clostridium difficile [1] = experiment: Activating effect of Ar-beta-glucoside compounds on beta-glucosidase activity, colony coloration on agar media with CHE-beta-glucoside; details: equimolar compounds with CHE-beta-glucoside 0.3 g/l; 24 h
Procedure: Six strains of Clostridium difficile were tested on the media comprising a compound which could act as a beta-glucosidase activator in these strains. That of the strain bearing the reference 08 01 091 is 056. The compounds tested as beta-glucosidase activators are as follows: • Arbutin; • O-methyl b-glucoside; • Cellobiose; • Salicin; • 4 Aminophenyl-b-glucoside; • 4-methyl-umbelliferone-b-glucoside; • aesculin.
They were tested at concentrations which make it possible to have the same molarity for each of the compounds.
The media used are prepared on the basis of the C. difficile chromID® medium indicated supra, for example 1, to which is added the CHE-beta-glucoside substrate at 0.3 g/l and, respectively, one of the compounds according to the following table:
(§1) The media are distributed into Petri dishes.
(§2) The seeding is performed from 48 h pre-cultures at 37° C. in anaerobiosis.
(§3) A suspension in physiological water at 0.5 McF is carried out and then the strains are seeded with the 10 μl calibrated loop.
Readings are performed after 24 h of incubation at 37° C. and in anaerobiosis.
(§4) Reading scale of the enzymatic activity/ coloration • 0=no activity • 0.5=very pale coloration • 1=clear low-intensity coloration • 2=distinct medium-intensity coloration, • 3=presence of an intense coloration, • 4=presence of a very intense coloration.
(§5) The coloration obtained with this substrate is grey up to an intensity of 1, and black for the other values.

Clostridium difficile [2] = experiment: Activating effect of arbutin on various beta-glucosidase substrates, colony coloration on agar media; details: substrates DHF-, alizarin- and 3HF-beta-glucoside; 24 h and 48 h
Procedure: The eight strains of Clostridium difficile tested in Example 1 were tested on media comprising DHF-beta-glucoside (media A), alizarin-beta-glucoside (media B) or 3HF-beta-glucoside (Media C) and an increasing concentration of arbutin.
The reading of the dishes is then carried out at 24 h and 48 h.
The media used are prepared on the basis of the C. difficile chromID® medium indicated supra, for example 1, to which arbutin is added according to the following table:
According to the substrates, the media are therefore as follows: • DHF-beta-glucoside at 400 mg/L (media TA, 1A, 2A and 3A) • Alizarin-beta-glucoside at 50 mg/L (media TB, 1 B, 2B and 3B) • 3HF-beta-glucoside at 300 mg/L (media TC, 1C, 2C and 3C)
as §1, §2, §3
Readings are performed after 24 h and 48 h of incubation at 37° C. in anaerobiosis.
as §4

Clostridium difficile [3] = experiment: Activating effect of arbutin on a beta-glucosidase substrate (CHE-beta-glucoside), colony coloration on agar media; details: 24 h
Procedure: Eight strains of Clostridium difficile, from the Applicant's collection, were tested on media comprising arbutin at different concentrations with or without CHE-beta-glucoside present. The reading of the dishes is then carried out at 24 h. The media is made up as follows:
C. difficile ChromID® base common to all of the media:
Then addition of arbutin and/or CHE-beta-glucoside, according to the media:
as §1, §2, §3
Readings are performed after 24 h of incubation at 37° C. in anaerobiosis.
as §4, §5

Structure (SMILES) | activating effect on beta-glucosidase of Clostridium difficile (Clostridium difficile [1]) | coloration intensity in the presence of arbutin (Clostridium difficile [2]) | activation of the beta-glucosidase (intensification of coloration, grey to black) (Clostridium difficile [3]; arbutin added in the presence of CHE-beta-glucoside) | coloration of the colonies (Clostridium difficile [3]; arbutin alone, without CHE-beta-glucoside)
Nc1ccc(O[C@@H]2O[C@H](CO)[C@@H](O)[C@H](O)[C@H]2O)cc1 [4-Aminophenyl-beta-glucoside] | observed activation of beta-glucosidase |  |  | 
OC[C@H]1O[C@@H](Oc2ccc(O)cc2)[C@H](O)[C@@H](O)[C@@H]1O [Arbutin, hydroquinone-beta-D-glucoside] | observed activation of beta-glucosidase | an improvement in the coloration intensity is noted regardless of the substrate used | an activation of the beta-glucosidase is noted | does not allow coloration of the colonies to be obtained
CO[C@@H]1O[C@H](CO)[C@@H](O)[C@H](O)[C@H]1O [O-methyl-beta-glucoside, reference compound] | do not have an activating effect |  |  | 
O=c1ccc2cc(O[C@@H]3O[C@H](CO)[C@@H](O)[C@H](O)[C@H]3O)c(O)cc2o1 [aesculin, 6,7-dihydroxy-coumarin-beta-glucoside] | observed activation of beta-glucosidase |  |  | 
O=C[C@H](O)[C@@H](O)[C@H](O[C@@H]1O[C@H](CO)[C@@H](O)[C@H](O)[C@H]1O)[C@H](O)CO [cellobiose, 4-O-beta-D-glucopyranosyl-D-glucose, reference compound] | do not have an activating effect |  |  | 
OCc1ccccc1O[C@@H]1O[C@H](CO)[C@@H](O)[C@H](O)[C@H]1O [salicin, 2-(hydroxymethyl)-phenyl-beta-D-glucoside] | observed activation of beta-glucosidase |  |  | 
